The values that follow are results of earlier work, collected in patent publication US20180140599A1, “PREVENTION AND/OR TREATMENT OF CONTRAST-INDUCED ACUTE KIDNEY INJURY” (Saghmos Therapeutics, Inc., priority 2016, published 2018).

For this data set, the system named is patients with high serum creatinine levels undergoing coronary angiography/angioplasty. The note with it: four published Phase 2 trials; compared with isotonic saline.

On to `COc1ccc(CN2CCNCC2)c(OC)c1OC` [Trimetazidine], for which the “reducing the risk of contrast-induced nephropathy (CIN)” value is reported as “more effective than isotonic saline in reducing the risk of contrast-induced nephropathy (CIN)”.
